Measured values from patent US20260256759A1, “CONCOMITANT ADMINISTRATION OF GLUCOCORTICOID RECEPTOR MODULATOR RELACORILANT AND CYP2C8 SUBSTRATES” (priority 2020, published 2026).

Molecular target: T1, CYP2C8 (Homo sapiens, UniProt P10632)
T1 sequence (P10632 1-490): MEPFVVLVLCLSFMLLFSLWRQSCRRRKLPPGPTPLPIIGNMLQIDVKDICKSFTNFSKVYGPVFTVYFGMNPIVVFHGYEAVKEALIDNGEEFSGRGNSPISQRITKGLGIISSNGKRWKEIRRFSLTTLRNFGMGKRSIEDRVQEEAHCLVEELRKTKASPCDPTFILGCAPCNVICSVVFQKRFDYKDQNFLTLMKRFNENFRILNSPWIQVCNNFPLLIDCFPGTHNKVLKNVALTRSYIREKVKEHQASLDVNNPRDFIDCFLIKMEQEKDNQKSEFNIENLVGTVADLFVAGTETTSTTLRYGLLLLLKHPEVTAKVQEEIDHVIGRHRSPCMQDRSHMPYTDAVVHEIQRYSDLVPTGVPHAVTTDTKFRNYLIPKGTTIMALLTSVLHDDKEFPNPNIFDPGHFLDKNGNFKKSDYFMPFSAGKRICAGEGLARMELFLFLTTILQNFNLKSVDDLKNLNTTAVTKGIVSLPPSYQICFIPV
Assay: Clinical drug-drug interaction study in healthy volunteers (pioglitazone with/without relacorilant)
Settings: Treatment E (with relacorilant 350 mg) vs Treatment B (alone)
Procedure: An open-label, crossover study was conducted in healthy subjects to determine the effect of relacorilant on the plasma exposure of pioglitazone, a known probe substrate CYP2C8. A single dose of 15 mg of pioglitazone was administered alone and pharmacokinetic (PK) samples were collected before dosing (0 hour) and at 0.5, 1, 1.5, 2, 2.5, 3, 4, 6, 8, 12, 18, 24, 36, 48, 60, and 72 hours post-dose. Relacorilant (350 mg) was then administered once a day for 10 consecutive days. On the following day, a single dose of 15 mg of pioglitazone was administered in combination with relacorilant 350 mg and pharmacokinetic (PK) samples were again collected at pre-dose through 72 hours post-dose at the same timepoints as described above. The plasma concentrations of pioglitazone and its metabolite, pioglitazone M4 were evaluated by validated bioanalytical assays on each dosing occasion of pioglitazone.

- AUC0-tz, Ratio of Geometric LSMs (Test/Reference): 74.71%
- AUCinf, Ratio of Geometric LSMs (Test/Reference): 74.83%
- Cmax, Ratio of Geometric LSMs (Test/Reference): 77.82%
Compound: CCc1ccc(CCOc2ccc(CC3SC(=O)NC3=O)cc2)nc1 (stereo not drawn) [Pioglitazone, pioglitazone]
